Test results reported in paper PMC8452301 (CPT: Pharmacometrics & Systems Pharmacology, 2021).
Like-named read-outs stand apart in the source and are kept apart here.

How the values were obtained:
[1] = assay type: in vivo, human; details: observed
[2] = Physicochemical input parameters; details: high solubility–high permeability
[3] = cited from earlier work
[4] = cited from earlier work; remark: listed apart in the source
[5] = cited from earlier work; remark: listed apart in the source
[6] = 4-mg single dose, geometric mean, observed N=7
[7] = 4-mg single dose, mean, observed N=7
[8] = 4-mg single dose, median, observed N=7
[9] = 4-mg, q.d. dosing, geometric mean, observed N=5
[10] = 4-mg, q.d. dosing, mean, observed N=5
[11] = 9-mg q.d. dosing, geometric mean, observed N=6
[12] = 9-mg q.d. dosing, mean, observed N=6
[13] = 9-mg q.d. dosing, median, observed N=6
[14] = 9-mg single dose, geometric mean, observed N=9
[15] = 9-mg single dose, mean, observed N=9
[16] = 9-mg single dose, median, observed N=9
[17] = 4-mg single dose, no inhibitor, Cohort A n=17, mean
[18] = 4-mg with 200-mg q.d. itraconazole, Cohort C, geometric mean
[19] = 4-mg with 200-mg q.d. itraconazole, Cohort C, mean
[20] = 4-mg with 400-mg q.d. fluconazole, Cohort B, geometric mean
[21] = 4-mg with 400-mg q.d. fluconazole, Cohort B, mean

**Q.** Which “difference in total exposure, patients with cancer versus healthy subjects” value [1] does the source give for `COc1cc(OC)cc(N(CCNC(C)C)c2ccc3ncc(-c4cnn(C)c4)nc3c2)c1` [erdafitinib] here?
**A.** ~ 1.4 fold

**Q.** What about the “Biopharmaceutics Classification System class” value [2] of the same compound?
**A.** Class 1

**Q.** What about the “AUC0–72” value [3, 6] of the same compound?
**A.** 6022 ng·h/mL

**Q.** And the Cmax [3, 6]?
**A.** 163 ng/mL

**Q.** What about the “AUC0–72” value [3, 7] of the same compound?
**A.** 6743 ng·h/mL

**Q.** And the Cmax [3, 7]?
**A.** 182 ng/mL

**Q.** What about the “AUC0–72” value [3, 8] of the same compound?
**A.** 6360 ng·h/mL

**Q.** What about the Cmax [3, 8] of the same compound?
**A.** 173 ng/mL

**Q.** And the AUCtau [3, 9]?
**A.** 12,064 ng·h/ml

**Q.** What about the Cmax [3, 9] of the same compound?
**A.** 630 ng/mL

**Q.** What about the AUCtau [3, 10] of the same compound?
**A.** 13,516 ng·h/ml

**Q.** And the Cmax [3, 10]?
**A.** 675 ng/mL

**Q.** What about the Cmax ([3]; 4-mg, q.d. dosing, median, observed N=5) of the same compound?
**A.** 569 ng/mL

**Q.** And the AUCtau [3, 11]?
**A.** 36,608 ng·h/ml

**Q.** What about the Cmax [3, 11] of the same compound?
**A.** 1911 ng/mL

**Q.** And the AUCtau [3, 12]?
**A.** 39,587 ng·h/ml

**Q.** What about the Cmax [3, 12] of the same compound?
**A.** 2018 ng/mL

**Q.** And the AUCtau [3, 13]?
**A.** 30,594 ng·h/ml

**Q.** What about the Cmax [3, 13] of the same compound?
**A.** 1765 ng/mL

**Q.** What about the “AUC0–72” value [3, 14] of the same compound?
**A.** 15,091 ng·h/ml

**Q.** What about the Cmax [3, 14] of the same compound?
**A.** 390 ng/mL

**Q.** What about the “AUC0–72” value [3, 15] of the same compound?
**A.** 17,564 ng·h/ml

**Q.** What about the Cmax [3, 15] of the same compound?
**A.** 431 ng/mL

**Q.** What about the “AUC0–72” value [3, 16] of the same compound?
**A.** 16,053 ng·h/ml

**Q.** What about the Cmax [3, 16] of the same compound?
**A.** 389 ng/mL

**Q.** What about the “unchanged drug recovered in feces” value ([4]; over ~ 16 days) of the same compound?
**A.** 17%

**Q.** What about the “unchanged drug recovered in feces” value ([4]; within the first 3 days) of the same compound?
**A.** < 5 % of the dose

**Q.** And the AUCinf ([5]; 4-mg single dose, no inhibitor, Cohort A n=17, geometric mean)?
**A.** 8777 ng·h/mL

**Q.** What about the AUCinf [5, 17] of the same compound?
**A.** 9145 ng·h/mL

**Q.** And the Cmax [5, 17]?
**A.** 138 ng/mL

**Q.** What about the AUCinf [5, 18] of the same compound?
**A.** 11,785 ng·h/ml

**Q.** And the Cmax [5, 18]?
**A.** 140 ng/mL

**Q.** What about the AUCinf [5, 19] of the same compound?
**A.** 12,228 ng·h/ml

**Q.** And the Cmax [5, 19]?
**A.** 145 ng/mL

**Q.** What about the AUCinf [5, 20] of the same compound?
**A.** 13,060 ng·h/ml

**Q.** What about the Cmax [5, 20] of the same compound?
**A.** 162 ng/mL

**Q.** And the AUCinf [5, 21]?
**A.** 14,233 ng·h/ml

**Q.** What about the Cmax [5, 21] of the same compound?
**A.** 177 ng/mL
